Results on 28 molecules are retold here after patent US20160310369A1, “Low Viscosity Hair Care Composition” (The Procter & Gamble Company, priority 2015, published 2016).

Each structure is given as a SMILES string. Where a name gives a salt, the structure may show the parent alone.

A short description of the series: Kinematic viscosity of surfactant base formulation with added agent, calibrated Cannon viscometers at 40° C. The format is physicochemical. As to conditions: for Kinematic viscosity at 40 C. [cSt] 2% oil: 2% agent in base formulation; for Kinematic viscosity at 40 C. [cSt] Lowest viscosity achieved: lowest over 2-8% agent, Table 2; for Kinematic viscosity at 40 C. [cSt] 4% oil: 4% agent in base formulation; for Kinematic viscosity at 40 C. [cSt] 6% oil: 6% agent in base formulation; for Kinematic viscosity at 40 C. [cSt] 8% oil: 8% agent in base formulation. The source says: Referring to Tables 1 and 2, the base formulations were made by mixing 1.6% perfume, 24% sodium undecyl sulfate (CAS#1072-24-8) active, 6% lauramidopropyl betaine (CAS#4292-10-8) active and 60.4% deionized water which leaves 8% unfilled for the addition of a viscosity reducing agent (the balance being filled in by distilled water). For all compositions, the surfactant, water and additives including viscosity reducing agents were expected to be in a single phase.
The agents from Tables 1 and 2 were added to the base formulation at a percentage of 2%, 4%, 6%, and 8% into the above surfactant solution. The subsequent formulations were vortexed and put into oven at 60° C. overnight to form homogeneous solution. The viscosities of the formulations were measured with calibrated viscometers (Size 200/350/450) from Cannon Instrument Company (2139 High Tech Road, State College, Pa., USA, 16803).
After the equilibration, the formulations were drawn to reach the starting mark with a rubber suction bulb and the flow time between the starting mark and end mark was recorded for calculation. Each formulation was measured three times to calculate average and standard deviation. Between samples, viscometer was cleaned with water and acetone to rinse off residual.
Viscosity values were calculated based on the equation:
Viscosity (mm^2/s·(cSt))=Time (s)*Constant (mm^2/s^2·(cSt/s))
The time in the above equation is the flow time recorded in the experiment and the constant numbers for each calibrated viscometer were obtained from the manuals.
The viscosity of the hair care composition can be calculated using the following method: Combine ingredients including surfactants, perfumes, viscosity reducing agents, polymers, other ingredients and the aqueous medium in a vessel. Samples are vortexed and placed into oven at 60° C. overnight to form a homogeneous solution. Samples that show hazing or clouding and formulas that appear macroscopically heterogeneous (e.g. multiple layers) at room temperature are not considered for further analysis and evaluation.
The viscosities of the formulations are measured with calibrated viscometers (Size 200/350/450) from Cannon Instrument Company (2139 High Tech Road, State College, Pa., USA, 16803). Prior to the measurement, the formulations are equilibrated in the viscometer reservoir for 30 min at 40° C. in water bath to ensure a homogeneous temperature is reached in the system.
After the equilibration, the formulations are drawn to reach the starting mark with a rubber suction bulb and the flow time between the starting mark and end mark is recorded for calculation. Each formulation is measured three times to calculate average and standard deviation. Between samples, the viscometer is cleaned with water and acetone to rinse off residual.

As to `CCC(=O)O[C@@H]1C[C@H]2CC[C@]1(C)C2(C)C` (racemic) [Iso Bornyl Propionate], the “Kinematic viscosity at 40 C. [cSt] 2% oil” value came to 463.1 cSt and the “Kinematic viscosity at 40 C. [cSt] Lowest viscosity achieved” value was determined as 463 cSt.
Consider `CCCCCCCC(OC)OC` [1,1-Dimethoxyoctane], for which the “Kinematic viscosity at 40 C. [cSt] 2% oil” value is listed as 500.7 cSt, the “Kinematic viscosity at 40 C. [cSt] 4% oil” value came to 308.1 cSt and the “Kinematic viscosity at 40 C. [cSt] Lowest viscosity achieved” value was determined as 308 cSt.
For `CC(C)CC=C(C=O)C(C)C` [2-Isopropyl-5-methyl-2-hexenal], the “Kinematic viscosity at 40 C. [cSt] 2% oil” value is 332.3 cSt and the “Kinematic viscosity at 40 C. [cSt] Lowest viscosity achieved” value is 332 cSt.
On to `CC(=O)OCCC(C)CCCC(C)C` (stereo not drawn) [3,7-Dimethyloctyl Acetate], for which the “Kinematic viscosity at 40 C. [cSt] 2% oil” value is recorded as 445.7 cSt and the “Kinematic viscosity at 40 C. [cSt] Lowest viscosity achieved” value was 446 cSt.
In the case of `CCC(CC(C)CC)=NO` (stereo not drawn) [5-Methyl-3-Heptanone Oxime], the “Kinematic viscosity at 40 C. [cSt] 2% oil” value was 246.3 cSt and the “Kinematic viscosity at 40 C. [cSt] Lowest viscosity achieved” value is listed as 246 cSt.
On the same counts, the results for `CCCCOC(=O)c1ccccc1O` [Butyl Salicylate] are 367.9 cSt and 368 cSt.
Consider `CC12CCC(CC1=O)C2(C)C` (stereo not drawn) [Camphor Gum], for which the “Kinematic viscosity at 40 C. [cSt] 2% oil” value is 365.8 cSt, the “Kinematic viscosity at 40 C. [cSt] 4% oil” value was 127.2 cSt and the “Kinematic viscosity at 40 C. [cSt] Lowest viscosity achieved” value came to 127 cSt.
As to `CC(=O)OCCC(C)CCC=C(C)C` (stereo not drawn) [Citronellyl Acetate], the “Kinematic viscosity at 40 C. [cSt] 2% oil” value worked out at 362.7 cSt and the “Kinematic viscosity at 40 C. [cSt] Lowest viscosity achieved” value is 363 cSt.
Consider `CCC(=O)OC1CC2CC1C1CC=CC21` (stereo not drawn) [Cyclaprop], for which the “Kinematic viscosity at 40 C. [cSt] 2% oil” value was 404.2 cSt and the “Kinematic viscosity at 40 C. [cSt] Lowest viscosity achieved” value amounted to 404 cSt.
Take `CCCCCCC1C(=O)CCC1C(=O)OC` (stereo not drawn) [Dihyro Iso Jasmonate]: the “Kinematic viscosity at 40 C. [cSt] 2% oil” value worked out at 334.9 cSt, the “Kinematic viscosity at 40 C. [cSt] 4% oil” value is recorded as 119.1 cSt and the “Kinematic viscosity at 40 C. [cSt] Lowest viscosity achieved” value is recorded as 119 cSt.
As for `C=C(C)[C@H]1CC=C(C)CC1` [Dipentene], the “Kinematic viscosity at 40 C. [cSt] 2% oil” value came to 307.6 cSt, the “Kinematic viscosity at 40 C. [cSt] 4% oil” value worked out at 74.5 cSt, the “Kinematic viscosity at 40 C. [cSt] 6% oil” value is 35.1 cSt and the “Kinematic viscosity at 40 C. [cSt] 8% oil” value came out at 42.6 cSt. Further, the “Kinematic viscosity at 40 C. [cSt] Lowest viscosity achieved” value was 35 cSt.
In the case of `CCO` [Ethanol, reference compound], the “Kinematic viscosity at 40 C. [cSt] 2% oil” value is listed as 205.6 cSt, the “Kinematic viscosity at 40 C. [cSt] 4% oil” value was found to be 111.0 cSt, the “Kinematic viscosity at 40 C. [cSt] 6% oil” value is 50.8 cSt and the “Kinematic viscosity at 40 C. [cSt] 8% oil” value is on record as 29.2 cSt. For the same molecule, the “Kinematic viscosity at 40 C. [cSt] Lowest viscosity achieved” value turned out to be 29 cSt.
For the molecule `CC12CCC(CC1)C(C)(C)O2` [Eucalyptol], the “Kinematic viscosity at 40 C. [cSt] 2% oil” value worked out at 527.3 cSt, the “Kinematic viscosity at 40 C. [cSt] 4% oil” value is listed as 292.9 cSt, the “Kinematic viscosity at 40 C. [cSt] 6% oil” value was found to be 203.1 cSt and the “Kinematic viscosity at 40 C. [cSt] Lowest viscosity achieved” value came out at 203 cSt.
Regarding `CC(C)=CCC/C(C)=C/COC(=O)Cc1ccccc1` [Geranyl Phenyl Acetate], the “Kinematic viscosity at 40 C. [cSt] 2% oil” value is on record as 224.0 cSt, the “Kinematic viscosity at 40 C. [cSt] 4% oil” value is listed as 76.0 cSt, the “Kinematic viscosity at 40 C. [cSt] 6% oil” value is recorded as 34.3 cSt and the “Kinematic viscosity at 40 C. [cSt] 8% oil” value is recorded as 36.6 cSt. Besides, the “Kinematic viscosity at 40 C. [cSt] Lowest viscosity achieved” value was determined as 34 cSt.
On to `CCCCCCCCCCCCCCCC` [Hexadecane], for which the “Kinematic viscosity at 40 C. [cSt] 2% oil” value is on record as 21.1 cSt, the “Kinematic viscosity at 40 C. [cSt] 4% oil” value turned out to be 18.1 cSt and the “Kinematic viscosity at 40 C. [cSt] Lowest viscosity achieved” value is listed as 18 cSt.
Take `CC(CC=O)CCCC(C)(C)O` (stereo not drawn) [Hydroxycitronellal]: the “Kinematic viscosity at 40 C. [cSt] 2% oil” value worked out at 310.8 cSt, the “Kinematic viscosity at 40 C. [cSt] 4% oil” value was found to be 145.4 cSt, the “Kinematic viscosity at 40 C. [cSt] 6% oil” value is recorded as 65.9 cSt and the “Kinematic viscosity at 40 C. [cSt] 8% oil” value is recorded as 34.1 cSt. Moreover, the “Kinematic viscosity at 40 C. [cSt] Lowest viscosity achieved” value is listed as 34 cSt.
With `CC(C)COC(=O)c1ccccc1O` [Iso Butyl Salicylate], the “Kinematic viscosity at 40 C. [cSt] 2% oil” value is 408.7 cSt and the “Kinematic viscosity at 40 C. [cSt] Lowest viscosity achieved” value stood at 409 cSt.
Regarding `CCCCCCCCCCCCCC(=O)OC(C)C` [Iso Propyl Myristate], the “Kinematic viscosity at 40 C. [cSt] 2% oil” value was 234.2 cSt, the “Kinematic viscosity at 40 C. [cSt] 4% oil” value is listed as 53.7 cSt, the “Kinematic viscosity at 40 C. [cSt] 6% oil” value is reported as 30.4 cSt and the “Kinematic viscosity at 40 C. [cSt] 8% oil” value is listed as 45.0 cSt. Besides, the “Kinematic viscosity at 40 C. [cSt] Lowest viscosity achieved” value worked out at 30 cSt.
In the case of `CC(C)CCOC(=O)c1ccccc1O` [Isoamyl Salicylate], the “Kinematic viscosity at 40 C. [cSt] 2% oil” value is given as 460.3 cSt, the “Kinematic viscosity at 40 C. [cSt] 4% oil” value came out at 193.2 cSt and the “Kinematic viscosity at 40 C. [cSt] Lowest viscosity achieved” value is 193 cSt.
Turning to `CCCCCC(=O)OCC(C)C` [Isobutyl Hexanoate], the “Kinematic viscosity at 40 C. [cSt] 2% oil” value was found to be 390.0 cSt, the “Kinematic viscosity at 40 C. [cSt] 4% oil” value stood at 177.9 cSt, the “Kinematic viscosity at 40 C. [cSt] 6% oil” value is listed as 140.9 cSt and the “Kinematic viscosity at 40 C. [cSt] 8% oil” value is 109.4 cSt. In addition, the “Kinematic viscosity at 40 C. [cSt] Lowest viscosity achieved” value was 109 cSt.
Regarding `C=C(C)[C@H]1CC=C(C)CC1` [Limonene], the “Kinematic viscosity at 40 C. [cSt] 2% oil” value came to 366.5 cSt, the “Kinematic viscosity at 40 C. [cSt] 4% oil” value came to 166.8 cSt, the “Kinematic viscosity at 40 C. [cSt] 6% oil” value was determined as 97.5 cSt and the “Kinematic viscosity at 40 C. [cSt] 8% oil” value is reported as 86.4 cSt. Further, the “Kinematic viscosity at 40 C. [cSt] Lowest viscosity achieved” value is 86 cSt.
On the same counts, the results for `C=CC(C)(CCC=C(C)C)OC(=O)C(C)C` (stereo not drawn) [Linalyl Iso Butyrate] are 223.4 cSt, 73.0 cSt, 37.7 cSt, 39.9 cSt and 38 cSt.
For `COC(C)(C)C1CC=C(C)CC1` (stereo not drawn) [Orange Flower Ether], the “Kinematic viscosity at 40 C. [cSt] 2% oil” value came out at 552.2 cSt, the “Kinematic viscosity at 40 C. [cSt] 4% oil” value was found to be 418.8 cSt and the “Kinematic viscosity at 40 C. [cSt] Lowest viscosity achieved” value is listed as 419 cSt.
Consider `CC(=O)CCc1ccc(O)cc1` [Raspberry Ketone], for which the “Kinematic viscosity at 40 C. [cSt] 2% oil” value was determined as 151.9 cSt, the “Kinematic viscosity at 40 C. [cSt] 4% oil” value was 107.4 cSt, the “Kinematic viscosity at 40 C. [cSt] 6% oil” value was determined as 54.0 cSt and the “Kinematic viscosity at 40 C. [cSt] 8% oil” value was 33.0 cSt. Moreover, the “Kinematic viscosity at 40 C. [cSt] Lowest viscosity achieved” value came to 33 cSt.
Regarding `CCOC(=O)CC(O)(CC(=O)OCC)C(=O)OCC` [Triethyl Citrate], the “Kinematic viscosity at 40 C. [cSt] 2% oil” value is listed as 269.4 cSt, the “Kinematic viscosity at 40 C. [cSt] 4% oil” value was 136.6 cSt, the “Kinematic viscosity at 40 C. [cSt] 6% oil” value was 66.6 cSt and the “Kinematic viscosity at 40 C. [cSt] 8% oil” value worked out at 40.5 cSt. Besides, the “Kinematic viscosity at 40 C. [cSt] Lowest viscosity achieved” value is reported as 41 cSt.
Take `CCCCCC1(C)CCC(C)(C)C1=O` (stereo not drawn) [Veloutone]: the “Kinematic viscosity at 40 C. [cSt] 2% oil” value is on record as 260.2 cSt, the “Kinematic viscosity at 40 C. [cSt] 4% oil” value turned out to be 129.1 cSt, the “Kinematic viscosity at 40 C. [cSt] 6% oil” value was 56.3 cSt and the “Kinematic viscosity at 40 C. [cSt] 8% oil” value was 47.3 cSt. Further, the “Kinematic viscosity at 40 C. [cSt] Lowest viscosity achieved” value stood at 47 cSt.
Turning to `CC1=CC=C(C(C)C)CC1` [alpha-Terpinene], the “Kinematic viscosity at 40 C. [cSt] 2% oil” value was 324.4 cSt, the “Kinematic viscosity at 40 C. [cSt] 4% oil” value came out at 96.0 cSt, the “Kinematic viscosity at 40 C. [cSt] 6% oil” value came out at 41.5 cSt and the “Kinematic viscosity at 40 C. [cSt] 8% oil” value was 46.7 cSt. Further, the “Kinematic viscosity at 40 C. [cSt] Lowest viscosity achieved” value amounted to 42 cSt.
Consider `CC1=CCC(C(C)C)=CC1` [gamma-Terpinene], for which the “Kinematic viscosity at 40 C. [cSt] 2% oil” value stood at 238.0 cSt, the “Kinematic viscosity at 40 C. [cSt] 4% oil” value came out at 65.0 cSt, the “Kinematic viscosity at 40 C. [cSt] 6% oil” value was 31.7 cSt and the “Kinematic viscosity at 40 C. [cSt] Lowest viscosity achieved” value worked out at 32 cSt.
